Here are results for twelve compounds from ChEMBL document CHEMBL2417377, “Hit-to-lead optimization and kinase selectivity of imidazo[1,2-a]quinoxalin-4-amine derived JNK1 inhibitors” (Bioorg Med Chem Lett, 2013).

For orientation: inhibition means the drop in the measured response relative to a control, in per cent. Higher therefore signals a response far below the control.

Common to all, as to details: PC-3
For experiment [1], the target named is T1, MAP/microtubule affinity-regulating kinase 4 (Homo sapiens) (UniProt Q96L34).
T1 sequence (whole entry): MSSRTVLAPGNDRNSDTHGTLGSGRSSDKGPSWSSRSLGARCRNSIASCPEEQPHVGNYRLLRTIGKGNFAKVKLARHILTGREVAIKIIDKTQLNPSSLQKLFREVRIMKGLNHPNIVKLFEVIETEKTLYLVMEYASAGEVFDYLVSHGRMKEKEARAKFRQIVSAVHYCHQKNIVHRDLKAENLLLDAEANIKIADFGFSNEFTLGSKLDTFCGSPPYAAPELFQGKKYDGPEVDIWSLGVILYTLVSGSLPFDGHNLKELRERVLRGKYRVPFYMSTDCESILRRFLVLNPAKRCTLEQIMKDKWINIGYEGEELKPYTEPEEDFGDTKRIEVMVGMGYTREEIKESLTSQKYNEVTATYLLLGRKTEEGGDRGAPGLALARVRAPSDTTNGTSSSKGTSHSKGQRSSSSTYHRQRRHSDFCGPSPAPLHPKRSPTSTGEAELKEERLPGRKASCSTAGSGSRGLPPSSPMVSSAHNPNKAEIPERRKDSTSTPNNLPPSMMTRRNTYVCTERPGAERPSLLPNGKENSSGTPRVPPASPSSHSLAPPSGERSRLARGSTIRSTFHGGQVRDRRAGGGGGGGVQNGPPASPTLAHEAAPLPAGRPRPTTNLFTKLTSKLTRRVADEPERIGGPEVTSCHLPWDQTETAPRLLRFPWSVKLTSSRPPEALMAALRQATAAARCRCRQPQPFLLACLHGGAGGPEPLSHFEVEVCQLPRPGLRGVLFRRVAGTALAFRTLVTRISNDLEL
As to the kind of experiment: Inhibition of MARK4 in human PC3 cell lysates at 10 uM using desthiobiotin-tagged ATP probe AX9989 followed by trypsinization by LC/MS analysis.

Experiment [2] deals with T2, Dual specificity mitogen-activated protein kinase kinase 6 (Homo sapiens) (UniProt P52564).
T2 sequence (whole entry): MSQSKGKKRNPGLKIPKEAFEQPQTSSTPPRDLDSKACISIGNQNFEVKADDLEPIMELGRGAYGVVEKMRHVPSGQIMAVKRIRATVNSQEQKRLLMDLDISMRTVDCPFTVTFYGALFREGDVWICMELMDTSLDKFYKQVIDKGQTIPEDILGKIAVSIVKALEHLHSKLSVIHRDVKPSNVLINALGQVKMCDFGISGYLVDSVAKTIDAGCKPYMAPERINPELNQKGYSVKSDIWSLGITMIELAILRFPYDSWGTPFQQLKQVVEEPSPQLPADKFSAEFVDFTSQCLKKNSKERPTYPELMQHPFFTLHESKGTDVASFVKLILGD
As to the kind of experiment: Inhibition of MAP2K6 in human PC3 cell lysates at 10 uM using desthiobiotin-tagged ATP probe AX9989 followed by trypsinization by LC/MS analysis.

For experiment [3], the target named is T3, Scaffold protein ILK (Homo sapiens) (UniProt Q13418).
T3 sequence (whole entry): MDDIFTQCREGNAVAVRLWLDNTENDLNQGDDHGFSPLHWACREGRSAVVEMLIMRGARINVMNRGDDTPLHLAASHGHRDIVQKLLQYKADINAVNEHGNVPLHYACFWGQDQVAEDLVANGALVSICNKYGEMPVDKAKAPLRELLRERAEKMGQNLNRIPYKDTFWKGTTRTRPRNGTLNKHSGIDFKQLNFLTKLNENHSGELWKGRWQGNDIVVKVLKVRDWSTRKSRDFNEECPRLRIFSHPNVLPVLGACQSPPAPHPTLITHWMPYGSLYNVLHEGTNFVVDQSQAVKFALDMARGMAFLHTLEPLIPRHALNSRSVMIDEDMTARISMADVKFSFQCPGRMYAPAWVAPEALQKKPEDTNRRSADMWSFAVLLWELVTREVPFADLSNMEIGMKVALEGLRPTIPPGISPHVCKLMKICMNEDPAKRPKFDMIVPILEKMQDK
The experiment is described as follows: Inhibition of ILK in human PC3 cell lysates at 10 uM using desthiobiotin-tagged ATP probe AX9989 followed by trypsinization by LC/MS analysis.

Experiment [4] deals with Focal adhesion kinase 1 (Homo sapiens) (UniProt Q05397). The experiment is described as follows: Inhibition of FAK in human PC3 cell lysates at 10 uM using desthiobiotin-tagged ATP probe AX9989 followed by trypsinization by LC/MS analysis.
Sequence of Focal adhesion kinase 1 (Homo sapiens) (Q05397 2-1052 limits assumed): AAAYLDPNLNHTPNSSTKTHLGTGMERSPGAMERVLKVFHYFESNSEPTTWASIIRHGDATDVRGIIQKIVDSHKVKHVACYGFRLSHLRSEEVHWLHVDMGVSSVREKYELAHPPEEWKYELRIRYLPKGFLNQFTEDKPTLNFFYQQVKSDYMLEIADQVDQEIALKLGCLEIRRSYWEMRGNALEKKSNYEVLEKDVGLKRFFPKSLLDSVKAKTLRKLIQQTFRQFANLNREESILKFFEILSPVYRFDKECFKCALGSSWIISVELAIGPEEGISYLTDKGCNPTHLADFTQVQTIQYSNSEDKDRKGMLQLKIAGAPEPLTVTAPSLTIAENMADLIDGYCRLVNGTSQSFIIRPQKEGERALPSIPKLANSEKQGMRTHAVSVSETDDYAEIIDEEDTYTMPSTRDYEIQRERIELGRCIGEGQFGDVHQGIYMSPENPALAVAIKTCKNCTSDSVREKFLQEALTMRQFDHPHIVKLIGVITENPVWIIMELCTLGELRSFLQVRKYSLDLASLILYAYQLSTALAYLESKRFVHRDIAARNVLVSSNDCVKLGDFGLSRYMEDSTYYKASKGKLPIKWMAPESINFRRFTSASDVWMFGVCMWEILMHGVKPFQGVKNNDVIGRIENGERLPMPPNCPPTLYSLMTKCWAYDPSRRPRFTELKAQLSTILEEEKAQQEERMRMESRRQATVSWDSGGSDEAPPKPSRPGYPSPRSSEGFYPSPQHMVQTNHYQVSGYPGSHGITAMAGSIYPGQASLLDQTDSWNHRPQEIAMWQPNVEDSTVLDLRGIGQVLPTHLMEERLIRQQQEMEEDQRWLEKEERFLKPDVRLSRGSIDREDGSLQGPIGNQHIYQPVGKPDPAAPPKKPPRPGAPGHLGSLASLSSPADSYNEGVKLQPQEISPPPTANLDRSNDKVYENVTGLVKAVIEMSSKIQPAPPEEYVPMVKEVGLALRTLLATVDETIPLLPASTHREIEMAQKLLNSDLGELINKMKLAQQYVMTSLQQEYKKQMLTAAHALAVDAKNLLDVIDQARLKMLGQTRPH
The target of experiment [5] is T4, Serine/threonine-protein kinase STK11 (Homo sapiens) (UniProt Q15831).
T4 sequence (whole entry): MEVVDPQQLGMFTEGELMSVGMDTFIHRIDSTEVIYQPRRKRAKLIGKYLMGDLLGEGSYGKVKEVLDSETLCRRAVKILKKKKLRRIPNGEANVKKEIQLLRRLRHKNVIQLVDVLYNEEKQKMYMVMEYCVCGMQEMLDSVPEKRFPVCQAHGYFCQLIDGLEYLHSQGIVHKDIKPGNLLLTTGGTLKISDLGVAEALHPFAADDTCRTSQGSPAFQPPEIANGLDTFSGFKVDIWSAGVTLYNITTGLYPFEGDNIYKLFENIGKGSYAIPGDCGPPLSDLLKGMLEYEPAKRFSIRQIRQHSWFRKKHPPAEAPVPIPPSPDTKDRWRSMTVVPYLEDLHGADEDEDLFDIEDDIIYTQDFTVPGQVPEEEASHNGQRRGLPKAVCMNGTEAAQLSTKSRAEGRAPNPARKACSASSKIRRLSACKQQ
As to the kind of experiment: Inhibition of LKB1 in human PC3 cell lysates at 10 uM using desthiobiotin-tagged ATP probe AX9989 followed by trypsinization by LC/MS analysis.

The target in experiment [6] is Cyclin-dependent kinase 2 (Homo sapiens) (UniProt P24941). The experiment is described as follows: Inhibition of CDK2 in human PC3 cell lysates at 10 uM using desthiobiotin-tagged ATP probe AX9989 followed by trypsinization by LC/MS analysis.
In experiment [7] the target is Serine/threonine-protein kinase WNK2 (Homo sapiens) (UniProt Q9Y3S1). The experiment is described as follows: Inhibition of Wnk2 in human PC3 cell lysates at 10 uM using desthiobiotin-tagged ATP probe AX9989 followed by trypsinization by LC/MS analysis.
In experiment [8] the target is STE20-like serine/threonine-protein kinase (Homo sapiens) (UniProt Q9H2G2). The experiment is described as follows: Inhibition of SLK in human PC3 cell lysates at 10 uM using desthiobiotin-tagged ATP probe AX9989 followed by trypsinization by LC/MS analysis.
Sequence of STE20-like serine/threonine-protein kinase (Homo sapiens) (Q9H2G2 whole entry, looked up): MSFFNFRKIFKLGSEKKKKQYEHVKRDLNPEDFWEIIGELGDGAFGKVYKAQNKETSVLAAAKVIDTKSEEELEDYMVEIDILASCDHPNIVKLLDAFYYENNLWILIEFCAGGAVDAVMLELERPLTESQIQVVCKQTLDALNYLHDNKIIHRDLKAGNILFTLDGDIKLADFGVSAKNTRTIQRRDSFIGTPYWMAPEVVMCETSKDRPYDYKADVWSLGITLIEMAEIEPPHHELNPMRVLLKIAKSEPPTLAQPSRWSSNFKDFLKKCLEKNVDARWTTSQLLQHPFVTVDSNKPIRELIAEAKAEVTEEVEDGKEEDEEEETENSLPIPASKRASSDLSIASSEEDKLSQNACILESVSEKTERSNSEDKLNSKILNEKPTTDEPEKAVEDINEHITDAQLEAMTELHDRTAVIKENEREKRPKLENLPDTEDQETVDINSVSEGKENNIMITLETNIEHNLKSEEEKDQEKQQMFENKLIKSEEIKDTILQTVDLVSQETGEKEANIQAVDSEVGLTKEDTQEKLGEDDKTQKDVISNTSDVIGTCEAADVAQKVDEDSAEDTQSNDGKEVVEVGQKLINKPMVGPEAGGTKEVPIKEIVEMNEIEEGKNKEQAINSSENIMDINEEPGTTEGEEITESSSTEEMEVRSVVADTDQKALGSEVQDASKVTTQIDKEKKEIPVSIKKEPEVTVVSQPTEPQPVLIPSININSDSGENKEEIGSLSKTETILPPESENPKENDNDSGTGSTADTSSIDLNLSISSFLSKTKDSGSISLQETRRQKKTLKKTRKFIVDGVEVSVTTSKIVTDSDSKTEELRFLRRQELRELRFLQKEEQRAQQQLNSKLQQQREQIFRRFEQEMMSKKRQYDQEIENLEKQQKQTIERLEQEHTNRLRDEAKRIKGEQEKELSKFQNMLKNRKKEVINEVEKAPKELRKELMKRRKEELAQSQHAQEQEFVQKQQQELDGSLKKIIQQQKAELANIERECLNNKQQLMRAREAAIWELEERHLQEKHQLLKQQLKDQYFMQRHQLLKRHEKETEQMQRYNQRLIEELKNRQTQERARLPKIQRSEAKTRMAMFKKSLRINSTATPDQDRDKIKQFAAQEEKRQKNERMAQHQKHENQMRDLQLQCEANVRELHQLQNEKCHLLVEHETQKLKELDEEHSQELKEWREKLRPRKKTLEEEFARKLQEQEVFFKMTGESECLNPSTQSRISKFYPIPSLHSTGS
Experiment [9] has as its target Casein kinase I delta/epsilon (Homo sapiens) (UniProt P48730+P49674). The experiment is described as follows: Inhibition of CK1delta/CK1epsilon in human PC3 cell lysates at 10 uM using desthiobiotin-tagged ATP probe AX9989 followed by trypsinization by LC/MS analysis. Type of experiment: protein-complex assay.

Sequence of Casein kinase I delta/epsilon (Homo sapiens) (P48730 whole entry, looked up): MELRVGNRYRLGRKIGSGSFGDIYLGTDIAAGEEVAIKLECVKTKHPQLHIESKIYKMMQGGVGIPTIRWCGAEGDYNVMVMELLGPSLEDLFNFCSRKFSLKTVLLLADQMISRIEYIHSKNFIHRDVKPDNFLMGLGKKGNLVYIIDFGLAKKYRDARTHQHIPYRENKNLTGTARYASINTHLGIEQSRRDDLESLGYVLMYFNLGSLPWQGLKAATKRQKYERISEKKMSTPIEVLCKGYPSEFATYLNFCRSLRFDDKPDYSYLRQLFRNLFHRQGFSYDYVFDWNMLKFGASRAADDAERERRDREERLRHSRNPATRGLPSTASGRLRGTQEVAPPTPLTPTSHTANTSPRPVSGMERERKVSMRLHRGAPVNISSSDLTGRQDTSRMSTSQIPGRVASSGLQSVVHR
Sequence of Casein kinase I delta/epsilon (Homo sapiens) (P49674 whole entry, looked up): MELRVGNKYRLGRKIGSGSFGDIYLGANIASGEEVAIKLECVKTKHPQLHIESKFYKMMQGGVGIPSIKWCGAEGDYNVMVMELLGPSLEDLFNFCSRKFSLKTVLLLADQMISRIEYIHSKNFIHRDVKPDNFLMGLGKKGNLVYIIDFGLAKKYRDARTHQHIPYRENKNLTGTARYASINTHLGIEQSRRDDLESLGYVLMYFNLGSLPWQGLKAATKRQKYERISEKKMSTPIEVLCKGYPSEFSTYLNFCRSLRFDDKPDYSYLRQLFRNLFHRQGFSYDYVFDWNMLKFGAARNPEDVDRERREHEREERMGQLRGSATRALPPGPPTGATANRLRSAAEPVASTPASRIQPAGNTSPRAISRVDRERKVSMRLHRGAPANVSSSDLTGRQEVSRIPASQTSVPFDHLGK

As for `CC[C@@H](NC(=O)c1ccc2nc(N[C@H]3CC[C@H](O)CC3)c3nccn3c2c1)c1ccccc1`, the inhibition in experiment [1], in experiment [2], in experiment [3], in experiment [4], in experiment [5] and in [6] was under 35% in each case. Further, the inhibition in [7], in experiment [8] and in [9] was under 35% throughout.

`C[C@@H](NC(=O)c1ccc2nc(N[C@H]3CC[C@H](O)CC3)c3nccn3c2c1)c1ccccc1`: the inhibition in [1], in [2], in [3], in experiment [4], in [5] and in [6] was under 35% each time. For the same compound, the inhibition is under 35% in [7], under 35% in [8] and 42.6% in [9].

Consider `CCC[C@@H](NC(=O)c1ccc2nc(N[C@H]3CC[C@H](O)CC3)c3nccn3c2c1)c1ccccc1`, for which the inhibition in [1], in experiment [2], in experiment [3], in experiment [4], in experiment [5] and in experiment [6] was under 35% in each case. The inhibition in experiment [7], in experiment [8] and in [9] was under 35% each time.

For the compound `C[C@H](NC(=O)c1ccc2nc(N[C@H]3CC[C@H](O)CC3)c3nccn3c2c1)c1ccccc1`, the inhibition in experiment [1], in [2], in [3], in [4], in [5] and in experiment [6] was under 35% throughout. Moreover, the inhibition in [7], in experiment [8] and in [9] was under 35% each time.

For the compound `O=C(NC1(c2ccccc2)CC1)c1ccc2nc(N[C@H]3CC[C@H](O)CC3)c3nccn3c2c1`, the inhibition in experiment [1], in experiment [2], in experiment [3], in experiment [4], in [5] and in experiment [6] was under 35% in each case. The inhibition in experiment [7], in experiment [8] and in experiment [9] was under 35% each time.

On to `NC(=O)c1ccc2nc(N[C@H]3CC[C@H](O)CC3)c3nccn3c2c1`, for which the inhibition in experiment [1], in experiment [2], in [3], in experiment [4], in [5] and in experiment [6] was under 35% throughout. The inhibition was under 35% in [7], under 35% in experiment [8] and 91.3% in experiment [9].

On to `CC(C)(NC(=O)c1ccc2nc(N[C@H]3CC[C@H](O)CC3)c3nccn3c2c1)c1ccccc1`, for which the inhibition in experiment [1], in experiment [2], in experiment [3], in experiment [4], in [5] and in experiment [6] was under 35% each time. Also, the inhibition in experiment [7], in experiment [8] and in [9] was under 35% in each case.

With `O=C(N[C@H](CO)c1ccccc1)c1ccc2nc(N[C@H]3CC[C@H](O)CC3)c3nccn3c2c1`, the inhibition in [1], in experiment [2], in [3], in experiment [4], in experiment [5] and in [6] was under 35% in each case. The inhibition in experiment [7], in experiment [8] and in [9] was under 35% throughout.

For the compound `O=C(NC1(Cc2ccc(F)cc2)CC1)c1ccc2nc(N[C@H]3CC[C@H](O)CC3)c3nccn3c2c1`, the inhibition in [1], in [2], in experiment [3], in experiment [4], in [5] and in [6] was under 35% throughout. Besides, the inhibition in [7], in experiment [8] and in experiment [9] was under 35% each time.

On to `O=C(NC1(c2ccc(F)cc2)CC1)c1ccc2nc(N[C@H]3CC[C@H](O)CC3)c3nccn3c2c1`, for which the inhibition in experiment [1], in experiment [2], in experiment [3], in [4], in experiment [5] and in [6] was under 35% throughout. Further, the inhibition in experiment [7] is under 35%; in experiment [8] it was under 35%; in [9], 44.3%.

Take `O=C(NC1(c2ccccc2)CCC1)c1ccc2nc(N[C@H]3CC[C@H](O)CC3)c3nccn3c2c1`: the inhibition in experiment [1], in [2], in [3], in experiment [4], in experiment [5] and in experiment [6] was under 35% in each case. The inhibition in experiment [7], in experiment [8] and in [9] was under 35% in each case.

On to `O=C(O)c1ccc2nc(N[C@H]3CC[C@H](O)CC3)c3nccn3c2c1`, for which the inhibition is under 35% in experiment [1]; under 35% in experiment [2]; under 35% in experiment [3]; under 35% in experiment [4]; under 35% in experiment [5]; 59.1% in [6]. The inhibition in experiment [7] is under 35%; in experiment [8], under 35%; in experiment [9], 81.2%.
